Data set [1] concerns the target Acetylcholinesterase (Electrophorus electricus) (UniProt O42275). The experiment in a line: Inhibition of electric eel AChE using ATC as substrate at 10 uM incubated for 2 mins by Ellman's method relative to control. On the technique in general: DTNB colorimetry detects thiols as they appear.
Data set [2] in a line: Cmax in Sprague-Dawley rat at 10 mg/kg, IG measured for 2880 mins by LC-MS/MS analysis. It counts as ADME, organism-based. The following applies: in vivo, po.
Data set [3] is described as follows: MRT (infinity) in Sprague-Dawley rat at 10 mg/kg, IG measured for 2880 mins by LC-MS/MS analysis. The format is ADME, organism-based. The following applies: in vivo, po.
Data set [4] in a line: AUC (0 to t) in Sprague-Dawley rat at 10 mg/kg, iv measured for 2880 mins by LC-MS/MS analysis. The format is ADME, organism-based. The following applies: in vivo.
Data set [5] in a line: Half life in plasma of ICR mouse at 10 mg/kg, IG measured at 10 to 240 mins by LC-MS/MS analysis. The format is ADME, organism-based. The conditions noted are these: in vivo, po, time 10-240 min.
The nature of data set [6]: AUC (0 to t) in plasma of ICR mouse at 10 mg/kg, IG measured at 10 to 240 mins by LC-MS/MS analysis. The format is ADME, organism-based. The conditions noted are these: in vivo, po, time 10-240 min.
A short description of data set [7]: Cmax in brain of ICR mouse at 10 mg/kg, IG measured at 10 to 240 mins by LC-MS/MS analysis. The format is ADME, organism-based. The following applies: po, time 10-240 min.
The nature of data set [8]: AUC (0 to t) in brain of ICR mouse at 10 mg/kg, IG measured at 10 to 240 mins by LC-MS/MS analysis. The format is ADME, organism-based. The following applies: po, time 10-240 min.
Data set [9] is described as follows: Ratio of Cmax in brain to plasma of ICR mouse at 10 mg/kg, IG measured at 10 to 240 mins by LC-MS/MS analysis. The conditions noted are these: po, time 10-240 min. It counts as ADME, organism-based.
Data set [10] in a line: Neurotoxicity against human SH-SY5Y cells by MTT assay. The format is toxicity, cell-based. (Tetrazolium assays rely on reduction of a dye to a coloured formazan, in cell work by metabolically active cells.)
Data set [11] is described as follows: Neurotoxicity against rat PC12 cells by MTT assay. The format is toxicity, cell-based. The conditions noted are these: pc-12.
Data set [12] concerns Antioxidant response element. Kind of data set: Induction of ARE in human HepG2-ARE-C8 cells incubated for 24 hrs by luciferase based assay. It counts as cell-based. The conditions noted are these: HepG2-ARE-C8, 24 h.
For data set [13], the system named is BV-2. Kind of data set: Anti-inflammatory activity against mouse BV-2 cells assessed as decrease in LPS-induced TNF-alpha level at 5 uM preincubated for 1 hr followed by LPS addition and incubated overnight by immunofluorescence based analysis. The format is functional, cell-based.
Data set [14] can be described thus: Toxicity in ICR mouse assessed as animal death administered orally. The following applies: in vivo, po.
The test system of data set [15] is Mus musculus. The experiment in a line: Improvement of learning ability in ICR mouse model of Amyloid beta(1 to 42)-induced cognitive impairment at 10 mg/kg, IG for 12 days by Moris water maze test. It counts as functional, organism-based. The conditions noted are these: time 12.0 day.
Data set [16] concerns Mus musculus. Kind of data set: Neuroprotective activity in ICR mouse model of Amyloid beta(1 to 42)-induced cognitive impairment assessed as decrease in Amyloid beta expression in brain at 10 mg/kg, IG for 12 days by ELISA. It counts as functional, organism-based. The following applies: time 12.0 day. In general terms: ELISA stands for enzyme-linked immunosorbent assay.
Data set [17] relates to Mus musculus. The experiment in a line: Neuroprotective activity in ICR mouse model of Amyloid beta(1 to 42)-induced cognitive impairment assessed as increase in AChE expression in brain at 10 mg/kg, IG for 12 days by ELISA. The conditions noted are these: time 12.0 day. It counts as functional, organism-based.
Data set [18] has as its system Mus musculus. Kind of data set: Anti-inflammatory activity in ICR mouse model assessed as reversal of LPS-induced body weight loss at 10 mg/kg, IG pretreated for 10 days followed by LPS treatment for 4 days. The format is functional, organism-based. The following applies: time 14.0 day.
Data set [19] has as its system Mus musculus. The experiment in a line: Anti-inflammatory activity in ICR mouse model assessed as reduction in serum TNF-alpha level at 10 mg/kg, IG pretreated for 10 days followed by LPS treatment for 4 days by ELISA. The format is functional, organism-based. The conditions noted are these: time 14.0 day.
The subject of data set [20] is Mus musculus. Kind of data set: Anti-inflammatory activity in ICR mouse model assessed as reduction in serum IL-1beta level at 10 mg/kg, IG pretreated for 10 days followed by LPS treatment for 4 days by ELISA. The format is functional, organism-based. The following applies: time 14.0 day.

The values that follow come from ChEMBL document CHEMBL5500378, “Discovery of 4-benzylpiperazinequinoline BChE inhibitor that suppresses neuroinflammation for the treatment of Alzheimer's disease” (Eur J Med Chem, 2024).

Broadly, the inhibition is the drop in the measured response relative to a control, in per cent. As a reminder, the Cmax is the peak of the concentration-time curve. The term MRT inf denotes the average time that molecules of a dose stay in the body. Usually AUC(0-t) stands for exposure summed from dosing to a finite time, without extrapolation to infinity. One may read the Kp as tissue or fluid exposure divided by exposure in the circulation. A word on the EC50: it is the concentration giving half of the maximal effect. Low values mean greater potency, high ones weaker potency.

Active and inactive are the calls of the source. The rule behind the calls is not given here.

Sequence of Acetylcholinesterase (Electrophorus electricus) (O42275 24-633 limits assumed): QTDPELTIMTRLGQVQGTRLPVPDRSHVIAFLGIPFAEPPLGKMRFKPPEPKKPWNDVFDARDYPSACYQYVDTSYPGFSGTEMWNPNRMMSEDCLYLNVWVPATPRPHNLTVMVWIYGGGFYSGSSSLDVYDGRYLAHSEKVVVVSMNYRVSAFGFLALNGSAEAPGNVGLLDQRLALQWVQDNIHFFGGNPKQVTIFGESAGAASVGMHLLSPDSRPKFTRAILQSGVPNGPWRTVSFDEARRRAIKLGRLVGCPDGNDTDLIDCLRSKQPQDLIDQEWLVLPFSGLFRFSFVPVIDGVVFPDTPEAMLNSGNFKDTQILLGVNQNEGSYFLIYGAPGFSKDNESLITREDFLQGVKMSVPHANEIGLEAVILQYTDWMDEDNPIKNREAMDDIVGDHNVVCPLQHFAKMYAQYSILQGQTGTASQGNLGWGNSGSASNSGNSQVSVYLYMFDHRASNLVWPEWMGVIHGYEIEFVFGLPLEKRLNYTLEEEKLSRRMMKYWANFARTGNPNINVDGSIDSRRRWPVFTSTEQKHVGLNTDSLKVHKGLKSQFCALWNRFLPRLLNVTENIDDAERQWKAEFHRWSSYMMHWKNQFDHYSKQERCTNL

`CCCc1ccc(C(=O)Nc2cnc3ccccc3c2N2CCN(Cc3ccccc3)CC2)cc1` registered an inhibition in data set [1] of less than 50%. The values for the maximum concentration (Cmax) in data set [2] and in [7] were 1380 ng/mL and 554 ng/mL, respectively. The molecule further displayed a mean residence time (MRT inf) in [3] of 17.8 h. Moreover, in data set [4], the AUC(0-t) at 48 h was 6070 ng·h/mL. The same molecule had a t1/2 in data set [5] of 1.09 h. In data set [6], this molecule gave an AUCt of 20051.76 ng·h/mL. The same molecule had an AUC(0-t) in data set [8] of 38300 ng·h/mL. Further, the Kp in data set [9] was determined as 2.33. Moreover, the Activity result is listed as “Not Active” in [10], “Not Active” in data set [11] and “Non-Toxic” in data set [14]. The concentration for a half-maximal effect (EC50) in data set [12] was determined as 23.5 µM. Moreover, the outcome in [13], in data set [15], in [16], in data set [17], in data set [18] and in [19] was Active. For the same molecule, the result in data set [20] was Active.
